Entries after “also recorded” stand apart in the source; their conditions may differ.
Assays:
[1] = tested on: pSTAT3; test: Western blot of pSTAT3 in LIF-treated pig articular chondrocytes; format: cell-based; details: 4 and 24 hours
Procedure: (§1) For standard western blot, treated and non-treated cells were lysed in RIPA Lysis and Extraction Buffer (Pierce, Rockford, IL) containing protease inhibitors (Pierce) followed by sonication with a 15-second pulse at a power output of 2 using the VirSonic 100 (SP Industries Company, Warminster, PA). Protein concentrations were determined by BCA protein assay (Pierce). Proteins were resolved with SDS-PAGE utilizing 4-15% Mini-PROTEAN TGX Precast Gels and transferred to Trans-Blot Turbo Transfer Packs with a 0.2-μm pore-size nitrocellulose membrane. The SDS-PAGE running buffer, 4-15% Mini-PROTEAN TGX Precast Gels, Trans-Blot Turbo Transfer Packs with a 0.2-μm pore-size nitrocellulose membrane was purchased from Biorad (Hercules, CA). Nitrocellulose membranes were blocked in 5% nonfat milk in 0.05% (v/v) Tween 20 (PBST) (Corning, Manassas, VA). […] Quantification of blots was performed using ImageJ 1.44 followed by Prism9 for analysis.
Experiments were performed to determine whether R805 is inclined to shift the signaling outputs downstream of gp130 promoting differential regulation similar to genetic ablation of Y814. As a readout, protein levels of phosphorylated SRC, MAPK (ERK 1/2) and NF-κB were measured in response to OSM while STAT3 and YAP1 levels were evaluated in response to LIF.

[2] = tested on: cleaved ACAN and COL2 neoepitopes; test: Neoepitope assay on pig articular cartilage explants stimulated with OSM; format: cell-based; details: 72 hours, normalized to wet weight
Procedure: Neoepitope analysis. WT and F814 mouse articular cartilage explants were treated with or without OSM (10 ng/mL). Pig articular cartilage explants were stimulated with or without OSM (10 ng/mL) and treated with or without peptide QQpYF (100 μg/mL or 300 μg/mL). For R805 treatment, pig articular cartilage explants were stimulated with or without OSM (10 ng/mL) and treated with or without R805 (0.01, 0.1, 1 or 10 μM). The explants were then digested for 2 hr at 37° C. with 0.01 units chondroitinase ABC (Sigma Aldrich, St. Louis, MO). Samples were then dialyzed with ultrapure water for 24 hr at 4° C., freeze dried, dissolved in RIPA Lysis and Extraction Buffer (Pierce, IL) containing protease inhibitors (Pierce) followed by sonication. Proteins were separated and analyzed by Western blot using primary antibodies against aggrecan (cat #NB100-74350, Novus Biologicals,) and collagen II neoepitopes (cat #50-1035, Ibex). Wet weight of explants was used as loading control.

[3] = tested on: STAT3; test: Western blot of STAT3 signaling in osteoarthritic chondrocytes; format: cell-based, human; details: 4 and 24 hours
Procedure: as §1, with “VA). Membranes were then incubated with primary antibodies p-gp130 Y814 (Evseenko lab, AbClonal), p-AKT (cat #4060, Cell Signaling), p-ERK 1/2 (cat #9106, Cell Signaling), p-Y416-SRC (cat #1246F, Novus Biologicals), p-gp130 (cat #1453R, Bioss USA) and p-NFκBp65 (cat #8242, Cell Signaling), and/or YAP1 (cat #4912, Cell Signaling). Histone H3 (cat #9515, Cell Signaling) was used as loading control.” for “VA).”

[4] = tested on: pNF-κB p65; test: Western blot of pNF-κB p65 in pig articular chondrocytes; format: cell-based; details: pig articular chondrocytes, OSM, 24 hours
Procedure: (§2) For standard western blot, treated and non-treated cells were lysed in RIPA Lysis and Extraction Buffer (Pierce, Rockford, IL) containing protease inhibitors (Pierce) followed by sonication with a 15-second pulse at a power output of 2 using the VirSonic 100 (SP Industries Company, Warminster, PA). Protein concentrations were determined by BCA protein assay (Pierce). Proteins were resolved with SDS-PAGE utilizing 4-15% Mini-PROTEAN TGX Precast Gels and transferred to Trans-Blot Turbo Transfer Packs with a 0.2-μm pore-size nitrocellulose membrane. The SDS-PAGE running buffer, 4-15% Mini-PROTEAN TGX Precast Gels, Trans-Blot Turbo Transfer Packs with a 0.2-μm pore-size nitrocellulose membrane was purchased from Biorad (Hercules, CA). Nitrocellulose membranes were blocked in 5% nonfat milk in 0.05% (v/v) Tween 20 (PBST) (Corning, Manassas, VA). Membranes were then incubated with primary antibodies p-gp130 Y814 (Evseenko lab, AbClonal), p-AKT (cat #4060, Cell Signaling), p-ERK 1/2 (cat #9106, Cell Signaling), p-Y416-SRC (cat #1246F, Novus Biologicals), p-gp130 (cat #1453R, Bioss USA) and p-NFκBp65 (cat #8242, Cell Signaling), and/or YAP1 (cat #4912, Cell Signaling). Histone H3 (cat #9515, Cell Signaling) was used as loading control. After washing in PBS containing 0.05% (v/v) Tween 20 (PBST), membranes were incubated with rabbit (cat #31460, Thermo Scientific) or mouse IgG-HRP (cat #31430, Thermo Scientific) secondary antibodies. After washing, membranes were developed with the Clarity Western ECL Blotting Substrate (Hercules, CA). Quantification of blots was performed using ImageJ 1.44 followed by Prism9 for analysis.

[5] = tested on: pSRC; test: Western blot of pSRC in pig articular chondrocytes; format: cell-based; details: pig articular chondrocytes, OSM, 4 and 24 hours
Procedure: as §2
The studies delineate that gp130 Y814 regulates SRC downstream signaling; since SRC is known to associate with gp130, it was hypothesized that gp130 and SRC are capable of physically interacting on Y814 and hindering this interaction will prevent SRC from signaling. In order to impede this interaction, experiments were performed using an innovative peptide library screen with short and overlapping peptides mimicking the motif of gp130 around Y814 that were individually tested for pSRC downregulation; these peptides ranged from 4-15 amino acids. The peptides contained a protein sequence stretch of consecutive amino acids surrounding gp130 Y814 residue. To test their efficacy, pig articular chondrocytes were stimulated with or without OSM in presence or absence of the peptides followed by co-immunoprecipitation to determine interaction and western blot detecting pSRC activity. […] Due to sequence specificity, the peptide is capable of discriminating among other gp130 regions serving as a competitive inhibitor.

[6] = tested on: ADAMTS4, ADAMTS5 and MMP13 transcription; test: qPCR of matrix-degrading genes in OSM-stimulated pig articular chondrocytes; format: cell-based; details: 48 hours
Procedure: Quantitative Real-Time PCR. Power SYBR Green (Applied Biosystems) RT-PCR amplification and detection was performed using an Applied Biosystems Step One Plus Real-Time PCR machine. The comparative Ct method for relative quantification (2-ΔΔCt) was used to quantitate gene expression. TBP (TATA-box binding protein) was used for gene normalization and expressed relative to a calibrator (sample in each set with lowest expression). Q-PCR for was conducted using the following primers: human: TBP forward, 5′ GATGGACGTTCGGTTTAGG 3′ (SEQ ID NO:28); TBP reverse, 5′ AGCAGCACAGTACGAGCAA 3′ (SEQ ID NO:29), MMP13 forward, 5′ […] 3′(SEQ ID NO:30); MMP13 reverse, 5′ GAACCCCGCATCTTGGCTT 3′ (SEQ ID NO:31), ADAMTS5 forward 5′ […] 3′ (SEQ ID NO:32); ADAMTS5 reverse, 5′ […] 3′ (SEQ ID NO:33), ADAMTS4 forward 5′ […] 3′ (SEQ ID NO:34); ADAMTS4 reverse, 5′ […] 3′ (SEQ ID NO:35), Collagen II forward, 5′ […] 3′ (SEQ ID NO:36); Collagen II reverse 5′ […] 3′ (SEQ ID NO:37); Aggrecan forward, 5′ AGGCAGCGTGATCCTTACC 3′ (SEQ ID NO:38); Aggrecan reverse, 5′ […] 3′ (SEQ ID NO:39). Cells were treated with 10 ng/mL OSM and/or with 5 μM SRC (SU6656) inhibitor, 10 ng/mL OSM and/or 50 ng/mL WT/F814 plasmids; 10 ng/mL OSM and/or 100 or 300 ug/mL of peptide QQpYF (Evseenko lab, Thermo Scientific); 10 uM R805 and/or 10 ng/mL OSM.

Cc1ccc(-c2csc(NC(=O)c3ccccn3)n2)cc1 [Peptide R805]
pSTAT3 downstream of LIF [1]: minimal inhibitory effect; also recorded: does not affect pro-regenerative signaling downstream of gp130
matrix degeneration: levels of cleaved ACAN and COL2 neoepitopes [2]: able to decrease; also recorded: protective effect on OSM-induced cartilage degeneration in vitro
STAT3 signaling in diseased joint cells [3]: minimally affected STAT3 signaling in a diseased joint
protein levels of pNF-κB p65 after OSM stimulation [4]: markedly suppressed
protein levels of pSRC after OSM stimulation [5]: markedly suppressed; also recorded: prevents pro-inflammatory signaling in OSM-stimulated pig articular chondrocytes
OSM-induced transcription of matrix-degrading genes (ADAMTS4, ADAMTS5, MMP13), qPCR [6]: able to decrease the MMP13 and ADAMTS4/5 gene expression

Reference: US20240182526A1, “COMPOSITIONS AND METHODS FOR MODULTING INFLAMMATORY AND DEGENERATIVE DISORDER” (University of Southern California, priority 2021, published 2024)
